According to patent US20260223838A1, “ANTIMICROBIAL MASTERBATCHES AND POWDERS COMPRISING A SYNERGISTIC BLEND OF COMPONENTS” (priority 2023, published 2026):

Tested on: E. coli (ATCC 8739)
Experiment: Zone of Inhibition (ZOI) of pressed powder pellets
Conditions: against E. coli after 24 h incubation at 37° C.
Method: Zone of Inhibition (ZOI). […] The cultures were streaked on Luria Agar (LB) plates and incubated overnight at 37° C. […] 50 μL of this stock suspension was spread homogeneously on a trypticase soy agar (TSA) plate (diameter 10 cm).

Compound | diameter of the ZOI
Zinc borate | No ZOI
basic copper (II) carbonate [BCC] | 12 mm
[O]=[Mo](=[O])=[O] [molybdenum oxide, molybdenum (VI) oxide] | 19 mm
